Laboratory results taken from patent publication US20100029542A1, “PROTEIN STERILISATION BY RADIATION AND ADDITION OF A STABILISING COMPOSITION” (priority 2006, published 2010).
Read-outs that look alike come from different tables or passages of the source.

Key:
glucose oxidase = target: T1, glucose oxidase (Aspergillus niger, UniProt P13006); experiment: Activity recovery of glucose oxidase in dry formulations following gamma irradiation; type: physicochemical; conditions: glucose oxidase 350 μg mL^−1 prior to drying, dry, 25-40 kGy
T1 construct: purchased Biocatalysts G575P
T1 sequence (P13006 17-605): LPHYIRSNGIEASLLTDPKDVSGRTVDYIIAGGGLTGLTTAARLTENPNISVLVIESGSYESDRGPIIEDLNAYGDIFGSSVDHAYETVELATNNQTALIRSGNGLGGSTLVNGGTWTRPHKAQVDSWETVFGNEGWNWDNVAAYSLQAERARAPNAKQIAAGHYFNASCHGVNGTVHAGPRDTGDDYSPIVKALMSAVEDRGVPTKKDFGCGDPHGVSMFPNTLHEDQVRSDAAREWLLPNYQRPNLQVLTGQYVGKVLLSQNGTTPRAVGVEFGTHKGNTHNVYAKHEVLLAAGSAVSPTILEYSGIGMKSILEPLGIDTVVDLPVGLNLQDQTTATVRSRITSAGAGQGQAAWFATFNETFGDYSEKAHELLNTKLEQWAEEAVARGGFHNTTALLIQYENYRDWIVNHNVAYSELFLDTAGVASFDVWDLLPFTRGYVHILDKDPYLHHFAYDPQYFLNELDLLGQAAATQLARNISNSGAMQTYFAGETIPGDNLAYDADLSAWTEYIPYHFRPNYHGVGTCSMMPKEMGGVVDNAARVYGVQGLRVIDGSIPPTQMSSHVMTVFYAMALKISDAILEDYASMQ
Protocol: (§1) In each example, an aqueous solution of a protein was prepared with selected additives in an Eppendorf tube or in a glass vial. Water was removed from the formulation by drying under a stream of nitrogen at 30° C. and subsequent incubation at atmospheric pressure in the presence of a dessicant. The Eppendorf tubes or the glass vials were sealed and delivered to an industrial sterilisation service for gamma irradiation, with a dose range typical for sterile medical products. The gamma-irradiated samples were reconstituted on their return and analysed for protein activity or structural integrity. The results were compared with those achieved using control (i.e. non-irradiated) samples.
(§2) The dry samples (approx. 20 μg in an Eppendorf tube) were gamma-irradiated by an industry-standard commercial sterilising service provided by Isotron PLC (Swindon, Wilts, UK), using a Cobalt 60 gamma source at ambient temperature. The radiation dose was in the range of 25-40 kGy.
(§3) The original solutions (i.e. solutions prior to drying) contained 350 μg mL^−1 of glucose oxidase and typically the total of 100 mM of protective compounds (i.e. 100 mM in case of a single compound, 50 mM+50 mM in case of two compounds, 33.3 mM+33.3 mM+33.3 mM in the case of three compounds etc.). The solutions were dried and gamma irradiated. Following the gamma irradiation, the samples, both pre- and post-gamma irradiated, were assayed for glucose oxidase activity. This was performed according to the following procedure:
Water was added to the sample to achieve 350 μg mL^−1 of glucose oxidase. 50 μL of the solution was added to 50 mL of deionised water. The following solutions were then added: • 10 mL of reagent mix (5 parts of 0.1 M sodium phosphate, pH 6+4 parts 2% w/w starch+1 part of 1 mg/mL lactoperoxidase enzyme); • 5 mL of 100 mM potassium iodide; and • 5 mL of 20% w/w glucose solution.
These were mixed together quickly. Time=0 was counted from the addition of the glucose. After 5 min, 1 ml of 5 M aq. hydrochloric acid was added to stop the reaction. The absorbance was then read at 630 nm using a Unicam UV-visible spectrophotometer (Type: Helios gamma). If the colour intensity was too great to allow an accurate reading, the sample was diluted with a defined volume of deionised water to bring the colour back on scale. The results were expressed as percentage recovery, by reference to the absorbance measured in the pre-gamma irradiation samples.

[1] = cited from earlier work
human growth hormone = target: T2, human growth hormone (Homo sapiens, UniProt P01241); experiment: Recovery of structural integrity of human growth hormone in dry formulations following gamma irradiation (HPLC); type: physicochemical; conditions: structural integrity by HPLC, human growth hormone 2.5 mg mL^−1 prior to drying, 25-40 kGy
T2 construct: purchased National Institute of Biological Standards and Control; further samples on prescription from a GP surgery
T2 sequence (P01241 27-217): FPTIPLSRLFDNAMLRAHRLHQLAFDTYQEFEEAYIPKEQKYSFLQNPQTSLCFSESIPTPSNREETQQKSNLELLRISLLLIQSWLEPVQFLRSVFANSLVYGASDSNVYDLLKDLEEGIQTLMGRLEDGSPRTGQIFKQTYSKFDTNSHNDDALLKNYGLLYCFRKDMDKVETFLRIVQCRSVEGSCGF
Protocol: as §1, §2
Mobile phase was prepared by mixing 71 parts (by volume) of a solution of TRIS (0.05 M, in water adjusted with hydrochloric acid to a pH of 7.5) and 29 parts (by volume) of n-propylalcohol. The mobile phase was filtered prior to its use. The liquid chromatograph (Agilent 1100 series) was equipped with a 214 nm detector and a 4.6×250 mm column (Phenomenex 00G-4167-E0) packed with butylsilyl silica gel with a granulometry of 5 μm and a porosity of 30 nm, maintained at 45° C. The flow rate was maintained at 0.5 mL min^−1. 15 μL of aqueous samples of human growth hormone (typically 1-2.5 mg mL^−1) were injected. Results were expressed as % of peak area corresponding to the gamma irradiated sample with respect to that measured in non-irradiated sample.

catalase = target: T3, catalase (Bos taurus, UniProt P00432); experiment: Activity recovery of catalase in dry formulations following gamma irradiation; type: physicochemical, bovine; conditions: Table 10, superoxide scavengers; catalase 100 μg mL^−1 prior to drying; dry; 25-40 kGy
T3 construct: Catalase (from bovine liver, Sigma C9322, 2380 U /mg solid); purchased Sigma C9322; host or cells: bovine liver
T3 sequence (P00432 2-527 limits assumed): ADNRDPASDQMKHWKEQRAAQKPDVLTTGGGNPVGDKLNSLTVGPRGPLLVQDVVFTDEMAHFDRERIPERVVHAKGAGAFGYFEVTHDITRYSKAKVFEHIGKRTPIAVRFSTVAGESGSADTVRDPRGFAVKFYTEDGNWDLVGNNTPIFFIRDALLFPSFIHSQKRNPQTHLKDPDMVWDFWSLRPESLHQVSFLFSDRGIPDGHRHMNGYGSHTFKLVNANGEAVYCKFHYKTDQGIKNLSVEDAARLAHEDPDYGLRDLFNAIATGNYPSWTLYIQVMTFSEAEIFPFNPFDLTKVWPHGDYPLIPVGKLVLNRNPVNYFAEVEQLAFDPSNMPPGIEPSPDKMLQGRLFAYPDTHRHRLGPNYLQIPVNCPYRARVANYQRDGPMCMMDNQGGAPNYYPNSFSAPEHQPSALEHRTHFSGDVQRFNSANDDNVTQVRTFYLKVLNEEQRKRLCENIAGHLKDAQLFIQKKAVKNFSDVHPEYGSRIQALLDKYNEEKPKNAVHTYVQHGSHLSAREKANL
Protocol: as §1, §2
as §3, with “contained 100” for “contained 350”, “of catalase” for “of glucose oxidase”
Water was added to the sample to achieve 100 μg mL^−1 of catalase. 100 μL of the solution was added to a mixture of 18 mL of PBS and 2 mL of hydrogen peroxide (30 mM in water) in a 125 mL polypropylene pot and mixed. The resulting mixture was incubated at room temperature precisely for 30 min. In the meantime, the following reagents were mixed in a plastic cuvette for spectrophotometric measurements: • 2.73 mL of citrate/phosphate buffer (0.1 M, pH 5.0) • 100 μL of tetramethylbenzidine (TMB) (3 mg/mL, dissolved in dimethyl sulphoxide (DMSO)) • 100 μL of lactoperoxidase
Following the 30 min incubation period, 70 μL of the catalase containing mixture was added to the cuvette and absorbance was read in approximately 30 s. The results were expressed as percentage recovery, by reference to the absorbance measured in the fresh samples (i.e. prior to incubation at increased temperature).

Structure (SMILES): CSCC[C@H](N)C(=O)O [Methionine]
- Enzyme activity remaining after gamma-irradiation (glucose oxidase; Table 3, prior-art antioxidants, ambient temperature, vs non-irradiated): 61.3%
- Enzyme activity remaining after gamma-irradiation (glucose oxidase; Table 5, singlet oxygen scavengers, ambient temperature): 61.3%
- Enzyme activity remaining after gamma-irradiation (glucose oxidase; Table 9, superoxide scavengers): 61.3%
- Rate of reaction with singlet oxygen ([1]; Table 5): 1.3e+07 M⁻¹ s⁻¹
- Rate of reaction with singlet oxygen ([1]; Table 7): 1.3e+07 M⁻¹ s⁻¹
- Rate of reaction with singlet oxygen ([1]; Table 8): 1.3e+07 M⁻¹ s⁻¹
- Structural integrity remaining after gamma-irradiation (HPLC) (human growth hormone; Table 4, prior-art antioxidants, ambient temperature): 69.7%
- Structural integrity remaining after gamma-irradiation (HPLC) (human growth hormone; Table 7, singlet oxygen scavengers): 69.7%
- Structural integrity remaining after gamma-irradiation (HPLC) (human growth hormone; Table 11, superoxide scavengers): 69.7%
- Enzyme activity remaining after gamma-irradiation (catalase): 44.3%
